Assay results taken from patent US20250163459A1, “IMPROVED CELL LINES AND METHODS FOR THE PRODUCTION OF ADENO-ASSOCIATED VECTORS” (CEVEC PHARMACEUTICALS GMBH, priority 2022, published 2025).

Legend:
Type in all cases: cell-based, human
CAP cells [1] = experiment: Encapsidated host cell DNA in AAV particles, ALU qPCR, CAP-derived producer cells; details: for encapsidated hcDNA: 30 μM and 60 μM, compared to vehicle treated controls (DMSO)
Experimental: (§1) At different time points post transfection, cell suspension was harvested, and cells were lysed by addition of Triton-X 100 (Sigma). After centrifugation, supernatants were diluted and incubated with TurboDNase (ThermoFisher Scientific), in order to remove non-encapsidated DNA contaminants. After inactivation of TurboDNAse, proteinase K was added to digest the viral capsid and subsequently amplify viral genomic DNA or hcDNA via ddPCR or qPCR.
(§2) The following primer/dual-labelled probe combinations (ordered at MWG, Eurofins and IDT, respectively, Table 1) directed against • a) the SV40 PolyA (quantification of viral titer) or • b) Alu sequences (quantification of hcDNA) • were used:
(§3) As standard for the viral genome, linearized transgene plasmid with a defined copy number was used. As standard for the hcDNA assay previously isolated CAP and HEK293 DNA (purified with DNeasy® Blood & Tissue Kit) was used.
AAV samples were treated with Turbo DNAse (Thermo Fischer Scientific) to digest the non-encapsidated DNA before the capsids were digested using Proteinase K. Proteinase K was inactivated by a heating step at 95° C. for 15 min. The samples were measured either by qPCR or ddPCR as follows:
The qPCR reaction contained the following components: 2×Brilliant Multiplex qPCR Master Mix (Agilent), nuclease-free H2O (Thermo Fisher Scientific), primer/probe mix and sample/standard. qPCR was run on an LightCycler 480 according to the manufacturer's instructions.
(§4) • Z-VAD-fmk inhibits caspases 3 and 8 which are upstream of the apoptotic nucleases DFF40 and ENDOG, respectively. • Z-VAD-fmk treatment should therefore reduce chromosomal fragmentation and decrease amount of packageably sized AAV cargo. • Transiently transfected CAP cells and HEK293 cells or full producers were cultured to produce AAV in the presence of absence of Z-VAD-fmk. • Resulting AAV particles were harvested from cell suspension on days 1, 2, 3, and 4 post induction. • Encapsidated host cell DNA was measured using a dedicated qPCR assay amplifying ALU repeats. • DNA fragmentation was determined using the DNA fragmentation assay by Chemometec.

CAP cell line = experiment: Viable cell density and viability of induced AAV producer cells; details: for viable cell density and viability: induced AAV producer cells, versus untreated cells, Camptothecin 10 μM
Experimental: During routine cultivation, cells were diluted with fresh medium to a viable cell density of 0.5-1×10^6 cells/ml every 72 to 96 h. Viable cell density and viability were determined by trypan blue exclusion using a Vi-Cell Blu cell counter (Beckman Coulter).
• Various stable and transient AAV producer cells were induced with doxycycline and treated with different concentrations of the antiapoptotic pan-caspase inhibitor Z-VAD-fmk. • Cell viability was evaluated using the NucleoCounter NC-3000.

CAP cells [2] = experiment: Sub-G1 DNA fragmentation assay (Chemometec, NucleoCounter NC-3000); details: during vector production; Camptothecin 10 μM over night on parental CAP cells
Text: A DNA fragmentation assay by Chemometec was applied using the NucleoCounter® NC-3000™ according to note No. 3003. Rev. 1.4.
In brief, cells were permeabilized with Ethanol, which allows low molecular weight DNA fragments (e.g., apoptotic DNA) to leak out, while large fragments and undamaged chromosomes are retained inside the nucleus. Total DNA content was stained by DAPI and detected using the NucleoCounter® NC-3000™. Here, cells typically fall into one of three clusters when plotted by signal intensity. The G1 peak represents the majority of cells with 2n DNA content. A second, smaller peak represents cells in G2 phase of the cell cycle, containing 4n. […]
as §4

stable producer cells = experiment: Capsid levels by ELISA; details: in the presence of Z-VAD-fmk
Experimental: Inhibition of apoptotic DNA fragmentation reduces amount and packaging of hcDNA. • a) First page: sensitivity test for Sub-G1 DNA-fragmentation assay (Chemometec) using Camptothecin treatment (10 μM) on parental CAP cells over night. M1 population as % of global DNA stain. Second page: merged curves for apoptotic DNA fragmentation determined by same assay after 0 h (black curve), 18 h (dark grey), and 44 h (light grey), with Z-VAD-fmk (right) and in control samples (left, induction only) • b) First page: Relative share of encapsidated hcDNA [%] in transient and stable AAV8 production at 3 days post induction (transient transfection) and 5 days post induction (stable clone). […] Encapsidated hcDNA was measured in relation to the respective untreated controls, each set at 100%. Second page: fold difference of hcDNA concentration over time [hours] in an untreated AAV production using stable producer clone 1 (light grey line) normalized to 10 μg/ml of Z-VAD-fmk (dark grey line) determined by ALU qPCR. • c) First page: Relative Capsid levels determined by ELISA in stable producer clone 1 and transiently transfected HEK293 suspension cells at different Z-VAD-fmk concentrations and compared with Camptothecin. […] Second page: corresponding host cell DNA per capsid as determined by ALU qPCR normalized to untreated controls. […]

HEK293 cells [3] = experiment: Endpoint PCR for detection of encapsidated hcDNA; details: transiently transfected HEK293 wt cells, cargo 1 or cargo 3
Experimental: Encapsidated hcDNA was prepared as described. PCR setup involved 3 μl sample as template for an endpoint PCR with 40 cylces using Q5 High-Fidelity DNA polymerase (NEB) according to the manufacturer's instructions. PCR samples were analyzed on a 2% agarose gel.

HEK293 cells [4] = experiment: Encapsidated host cell DNA in AAV particles, ALU qPCR, HEK293 cells; details: up to 40 μg/ml, compared to untreated controls, transient transfection
Experimental: as §1, §2, §3
AAV samples were treated with Turbo DNAse (Thermo Fischer Scientific) to digest the non-encapsidated DNA before the capsids were digested using Proteinase K. Proteinase K was inactivated by a heating step at 95° C. for 15 min. The samples were measured either by qPCR or ddPCR as follows: […]

Compound	encapsidated hcDNA (CAP cells [1]; stable inducible AAV producer cells, day 3 post induction)	encapsidated hcDNA (CAP cells [1]; stable inducible AAV producer cells, day 3 post induction, listed as SB 203580)	reduction of encapsidated hcDNA (CAP cells [1]; 60 μM, stable inducible AAV producer cells, compared to vehicle treated controls, day 3 post induction)	viable cell density and viability (CAP cell line)	amount of low molecular weight DNA (short DNA fragments) (CAP cells [2])	increase in viability (CAP cell line; 80 h of treatment with 10 μg/ml, compared to untreated cells) [percentage points]	compensation of Camptothecin-reduced viability and VCD (CAP cell line; co-culturing, 10 μM Camptothecin+20 μM Z-VAD-fmk)	capsid levels (ELISA) (stable producer cells)	encapsidated hcDNA (genomic DNA sequence from HEK293 cells) (HEK293 cells [3])	reduction in encapsidated hcDNA normalized to capsid levels (CAP cells [1]; stable producer cells, compared to controls) [fold]	packaging of host cell DNA (CAP cells [1]; up to 40 μg/ml, compared to untreated controls, fully transient approach and full producers)	packaging of host cell DNA (HEK293 cells [4])
C[S+]([O-])c1ccc(-c2nc(-c3ccc(F)cc3)c(-c3ccncc3)[nH]2)cc1 (centres unmarked) [Adezmapimod, 4-(4-fluorophenyl)-2-(4-methylsulfinylphenyl)-5-(4-pyridyl)-1H-imidazole]	reduced hcDNA encapsidation	reduces the encapsidated hcDNA	more than 75%									
CC[C@@]1(O)C(=O)OCc2c1cc1n(c2=O)Cc2cc3ccccc3nc2-1 [Camptothecin]				reduced viability and VCD	increase in short DNA fragments							
Z-Val-Ala-Asp fluoromethyl ketone [Z-VAD-fmk]				increased viable cell density and viability	reduced the amount of low molecular weight DNA	~10	could be compensated	slightly increased	undetectable	~10	dramatically decreased packaging of host cell DNA	dramatically decreased packaging of host cell DNA
